Measured values reported in ChEMBL document CHEMBL5465560, “Selectivity Literature for EUbOPEN Chemogenomic Library” (2024).

Key:
[1] = molecular target: Tyrosine-protein kinase CSK (Homo sapiens) (UniProt P41240); settings: at 10 µM
[2] = Selectivity interaction (KinomeScan (DiscoverX)) EUB0000092b CDPK1; settings: at 10 µM
[3] = molecular target: T1, Serine/threonine-protein kinase STK11 (Homo sapiens) (UniProt Q15831); test: Selectivity interaction (KinomeScan (DiscoverX)) EUB0000655a STK11; settings: at 10 µM
T1 sequence (whole entry): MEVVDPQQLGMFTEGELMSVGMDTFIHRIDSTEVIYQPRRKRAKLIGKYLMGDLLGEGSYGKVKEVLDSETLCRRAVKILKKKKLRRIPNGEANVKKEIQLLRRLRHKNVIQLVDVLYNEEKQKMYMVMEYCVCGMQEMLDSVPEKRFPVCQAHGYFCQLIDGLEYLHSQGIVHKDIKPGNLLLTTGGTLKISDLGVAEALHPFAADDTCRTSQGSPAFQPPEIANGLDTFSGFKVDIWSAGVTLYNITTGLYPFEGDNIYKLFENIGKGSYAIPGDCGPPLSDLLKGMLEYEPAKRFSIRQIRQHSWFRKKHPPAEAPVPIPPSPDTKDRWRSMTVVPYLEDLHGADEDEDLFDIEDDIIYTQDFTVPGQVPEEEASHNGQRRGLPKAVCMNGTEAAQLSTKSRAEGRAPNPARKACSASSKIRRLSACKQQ

D(2) dopamine receptor = D(2) dopamine receptor (Homo sapiens, UniProt P14416); test: Selectivity interaction (Panel of kinases, GPCRs, ion channels and transporters (enzymatic assay)) EUB0000266bCl DRD2
[4] = molecular target: Mitogen-activated protein kinase 6 (Homo sapiens) (UniProt Q16659); settings: at 10 µM
[5] = molecular target: Tyrosine-protein kinase ABL1 (Homo sapiens, UniProt P00519); test: Selectivity interaction (ActivX KiNativ screen (kinase selectivity in THP-1 cell lysates)) EUB0000639a ABL1; type: subcellular; settings: lysate
[6] = molecular target: T2, Inhibitor of nuclear factor kappa-B kinase subunit beta (Homo sapiens) (UniProt O14920); test: (§1) Selectivity interaction (ActivX KiNativ screen (kinase selectivity in THP-1 cell lysates)) EUB0000639a IKBKB; type: subcellular; settings: lysate
T2 sequence (whole entry): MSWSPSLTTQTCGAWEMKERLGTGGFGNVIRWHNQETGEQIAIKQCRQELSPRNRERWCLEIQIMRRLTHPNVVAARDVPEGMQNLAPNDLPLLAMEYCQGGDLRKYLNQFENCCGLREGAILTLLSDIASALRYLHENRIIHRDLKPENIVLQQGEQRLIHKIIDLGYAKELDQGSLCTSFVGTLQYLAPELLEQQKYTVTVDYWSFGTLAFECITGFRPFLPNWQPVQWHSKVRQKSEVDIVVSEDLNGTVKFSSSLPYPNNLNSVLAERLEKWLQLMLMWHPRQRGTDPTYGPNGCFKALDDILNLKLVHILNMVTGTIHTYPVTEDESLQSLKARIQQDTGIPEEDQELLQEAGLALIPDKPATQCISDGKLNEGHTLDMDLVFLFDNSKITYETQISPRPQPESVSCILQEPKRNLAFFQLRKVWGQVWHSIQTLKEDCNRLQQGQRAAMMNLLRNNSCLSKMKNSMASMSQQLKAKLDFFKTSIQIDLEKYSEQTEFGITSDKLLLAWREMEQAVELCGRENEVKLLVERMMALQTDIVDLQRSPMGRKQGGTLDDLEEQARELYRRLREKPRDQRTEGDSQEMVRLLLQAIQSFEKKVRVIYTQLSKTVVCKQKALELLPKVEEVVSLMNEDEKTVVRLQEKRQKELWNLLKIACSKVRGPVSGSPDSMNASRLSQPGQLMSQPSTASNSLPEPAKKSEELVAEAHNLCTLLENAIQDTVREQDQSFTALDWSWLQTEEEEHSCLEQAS

[7] = molecular target: T2, Inhibitor of nuclear factor kappa-B kinase subunit beta (Homo sapiens); test: as §1; type: subcellular; settings: lysate, at 0.04 µM
[8] = molecular target: Dual specificity protein kinase CLK4 (Homo sapiens, UniProt Q9HAZ1); test: Selectivity interaction (KinomeScan (DiscoverX)) EUB0000595a CLK4; settings: at 10 µM
[9] = molecular target: Cyclin-dependent kinase-like 3 (Homo sapiens) (UniProt Q8IVW4); test: Selectivity interaction (KinomeScan (DiscoverX)) EUB0000045b CDKL3
[10] = system: Epidermal growth factor receptor (Homo sapiens), P00533 [UNDEFINED MUTATION]; test: Selectivity interaction (KinomeScan (DiscoverX)) EUB0000045b EGFR; settings: at 1 µM
[11] = molecular target: Serine/threonine-protein kinase SIK1 (Homo sapiens) (UniProt P57059); test: Selectivity interaction (KinomeScan (DiscoverX)) EUB0000045b SIK1
[12] = molecular target: Phosphatidylinositol 4-kinase beta (Homo sapiens, UniProt Q9UBF8); test: Selectivity interaction (KinomeScan (DiscoverX)) EUB0000618a PI4KB; settings: at 10 µM

Chain of Tyrosine-protein kinase ABL1 (P00519 whole entry): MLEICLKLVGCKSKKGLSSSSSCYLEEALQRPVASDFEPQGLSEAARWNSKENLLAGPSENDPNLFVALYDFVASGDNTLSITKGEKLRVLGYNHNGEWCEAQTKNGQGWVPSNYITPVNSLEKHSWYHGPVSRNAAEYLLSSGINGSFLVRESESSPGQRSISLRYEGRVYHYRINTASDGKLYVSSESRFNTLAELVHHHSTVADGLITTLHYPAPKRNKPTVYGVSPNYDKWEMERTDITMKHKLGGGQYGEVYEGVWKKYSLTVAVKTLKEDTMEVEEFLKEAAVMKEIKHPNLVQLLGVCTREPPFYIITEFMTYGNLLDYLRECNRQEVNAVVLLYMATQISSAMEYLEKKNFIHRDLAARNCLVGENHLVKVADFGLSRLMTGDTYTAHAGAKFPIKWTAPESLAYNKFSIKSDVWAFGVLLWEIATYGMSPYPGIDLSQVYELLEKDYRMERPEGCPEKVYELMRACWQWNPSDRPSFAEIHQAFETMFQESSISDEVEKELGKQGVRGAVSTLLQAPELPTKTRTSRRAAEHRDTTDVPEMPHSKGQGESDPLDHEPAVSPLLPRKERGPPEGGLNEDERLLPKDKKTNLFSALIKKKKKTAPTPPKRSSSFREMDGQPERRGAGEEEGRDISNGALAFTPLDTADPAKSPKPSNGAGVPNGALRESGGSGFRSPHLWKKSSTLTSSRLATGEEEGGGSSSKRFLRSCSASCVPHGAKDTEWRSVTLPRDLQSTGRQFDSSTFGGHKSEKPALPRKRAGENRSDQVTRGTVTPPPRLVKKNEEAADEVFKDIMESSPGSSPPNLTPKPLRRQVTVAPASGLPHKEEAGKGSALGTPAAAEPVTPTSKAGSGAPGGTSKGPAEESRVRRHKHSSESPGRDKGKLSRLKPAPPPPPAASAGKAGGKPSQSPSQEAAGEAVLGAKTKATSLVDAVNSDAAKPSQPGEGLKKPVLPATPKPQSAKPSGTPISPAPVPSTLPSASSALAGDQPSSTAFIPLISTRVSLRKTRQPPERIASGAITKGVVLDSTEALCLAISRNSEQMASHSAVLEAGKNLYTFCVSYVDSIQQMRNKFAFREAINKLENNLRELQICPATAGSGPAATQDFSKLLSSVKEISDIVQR
Chain of Serine/threonine-protein kinase SIK1 (Homo sapiens) (P57059 whole entry): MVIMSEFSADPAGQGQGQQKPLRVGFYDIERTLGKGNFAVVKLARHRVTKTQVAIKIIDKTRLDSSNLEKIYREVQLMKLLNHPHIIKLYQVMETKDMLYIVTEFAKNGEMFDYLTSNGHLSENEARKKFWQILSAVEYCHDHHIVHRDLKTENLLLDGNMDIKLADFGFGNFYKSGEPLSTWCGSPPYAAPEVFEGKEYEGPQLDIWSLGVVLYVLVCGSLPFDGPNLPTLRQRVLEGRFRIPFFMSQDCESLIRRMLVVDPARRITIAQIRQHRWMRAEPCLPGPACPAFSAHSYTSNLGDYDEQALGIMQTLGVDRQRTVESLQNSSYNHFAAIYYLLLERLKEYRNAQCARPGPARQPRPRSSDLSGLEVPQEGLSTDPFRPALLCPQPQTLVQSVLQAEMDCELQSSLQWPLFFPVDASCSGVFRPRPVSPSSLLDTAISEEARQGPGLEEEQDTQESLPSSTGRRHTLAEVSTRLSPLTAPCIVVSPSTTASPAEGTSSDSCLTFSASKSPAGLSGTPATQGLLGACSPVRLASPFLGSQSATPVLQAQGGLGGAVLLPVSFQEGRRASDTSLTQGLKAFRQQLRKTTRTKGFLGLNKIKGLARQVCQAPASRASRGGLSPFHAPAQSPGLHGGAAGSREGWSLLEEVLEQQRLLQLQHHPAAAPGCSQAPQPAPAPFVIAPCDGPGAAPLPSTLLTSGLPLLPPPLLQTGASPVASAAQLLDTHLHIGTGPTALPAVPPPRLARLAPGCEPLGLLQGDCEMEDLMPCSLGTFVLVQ
Chain of Cyclin-dependent kinase-like 3 (Homo sapiens) (Q8IVW4 whole entry, looked up): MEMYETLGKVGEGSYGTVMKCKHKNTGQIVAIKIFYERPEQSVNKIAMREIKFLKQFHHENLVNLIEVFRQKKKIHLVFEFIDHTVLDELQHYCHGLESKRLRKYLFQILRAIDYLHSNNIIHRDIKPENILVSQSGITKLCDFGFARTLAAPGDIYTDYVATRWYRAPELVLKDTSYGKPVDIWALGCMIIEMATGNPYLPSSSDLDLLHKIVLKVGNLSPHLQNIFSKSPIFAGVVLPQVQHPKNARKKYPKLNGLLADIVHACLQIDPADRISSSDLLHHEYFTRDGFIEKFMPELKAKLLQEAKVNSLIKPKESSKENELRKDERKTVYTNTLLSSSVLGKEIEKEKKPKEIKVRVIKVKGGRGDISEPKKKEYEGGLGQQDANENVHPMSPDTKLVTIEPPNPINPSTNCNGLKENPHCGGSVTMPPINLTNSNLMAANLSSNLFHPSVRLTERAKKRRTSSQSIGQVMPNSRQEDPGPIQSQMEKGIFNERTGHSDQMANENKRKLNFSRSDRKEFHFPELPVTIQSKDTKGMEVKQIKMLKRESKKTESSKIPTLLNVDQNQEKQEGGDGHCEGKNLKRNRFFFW
Chain of Tyrosine-protein kinase CSK (Homo sapiens) (P41240 2-450 limits assumed): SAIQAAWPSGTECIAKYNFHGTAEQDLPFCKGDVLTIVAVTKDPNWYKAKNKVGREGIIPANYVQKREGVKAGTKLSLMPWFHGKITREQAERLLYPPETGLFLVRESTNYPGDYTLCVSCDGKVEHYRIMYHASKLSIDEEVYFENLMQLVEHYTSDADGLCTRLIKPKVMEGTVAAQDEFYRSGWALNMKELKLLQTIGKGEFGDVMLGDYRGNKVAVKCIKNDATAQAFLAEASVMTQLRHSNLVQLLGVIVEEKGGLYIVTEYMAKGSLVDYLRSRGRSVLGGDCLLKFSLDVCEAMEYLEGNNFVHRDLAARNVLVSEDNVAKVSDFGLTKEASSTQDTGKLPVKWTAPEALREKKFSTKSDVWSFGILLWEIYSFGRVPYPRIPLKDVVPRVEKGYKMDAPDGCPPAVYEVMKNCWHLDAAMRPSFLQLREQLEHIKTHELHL
Chain of Mitogen-activated protein kinase 6 (Homo sapiens) (Q16659 whole entry): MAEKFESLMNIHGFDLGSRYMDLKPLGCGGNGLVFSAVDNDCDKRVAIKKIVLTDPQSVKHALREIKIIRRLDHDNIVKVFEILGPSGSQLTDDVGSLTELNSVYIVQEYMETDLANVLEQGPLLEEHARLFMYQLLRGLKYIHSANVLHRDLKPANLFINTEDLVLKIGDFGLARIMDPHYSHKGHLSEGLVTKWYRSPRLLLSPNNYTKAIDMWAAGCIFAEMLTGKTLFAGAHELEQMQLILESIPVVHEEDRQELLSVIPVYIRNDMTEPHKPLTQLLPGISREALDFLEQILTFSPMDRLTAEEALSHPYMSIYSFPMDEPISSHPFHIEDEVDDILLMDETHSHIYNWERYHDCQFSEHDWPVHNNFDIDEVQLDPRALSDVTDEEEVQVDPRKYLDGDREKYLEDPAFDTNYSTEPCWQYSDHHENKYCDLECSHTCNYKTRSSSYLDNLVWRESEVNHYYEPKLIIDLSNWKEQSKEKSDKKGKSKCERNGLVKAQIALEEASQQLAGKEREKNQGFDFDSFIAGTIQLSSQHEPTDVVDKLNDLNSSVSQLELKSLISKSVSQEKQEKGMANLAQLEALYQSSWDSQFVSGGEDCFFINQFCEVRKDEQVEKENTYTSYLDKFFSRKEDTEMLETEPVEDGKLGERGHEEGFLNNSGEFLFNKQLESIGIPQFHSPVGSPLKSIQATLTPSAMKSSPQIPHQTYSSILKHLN
Chain of Dual specificity protein kinase CLK4 (Q9HAZ1 whole entry, looked up): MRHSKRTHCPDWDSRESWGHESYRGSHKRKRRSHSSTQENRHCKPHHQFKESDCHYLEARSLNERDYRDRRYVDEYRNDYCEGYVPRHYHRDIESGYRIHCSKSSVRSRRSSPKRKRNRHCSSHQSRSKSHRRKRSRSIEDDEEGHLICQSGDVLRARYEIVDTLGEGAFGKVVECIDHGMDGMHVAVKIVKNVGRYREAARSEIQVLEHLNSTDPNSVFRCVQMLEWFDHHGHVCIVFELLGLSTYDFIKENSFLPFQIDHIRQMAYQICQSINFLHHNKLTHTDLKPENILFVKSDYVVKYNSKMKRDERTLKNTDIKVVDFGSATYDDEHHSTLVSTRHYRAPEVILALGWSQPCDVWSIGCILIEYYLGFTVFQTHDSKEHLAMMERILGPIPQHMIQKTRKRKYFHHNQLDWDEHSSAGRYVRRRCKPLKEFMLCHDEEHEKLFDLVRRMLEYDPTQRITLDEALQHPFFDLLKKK
Chain of D(2) dopamine receptor (P14416 whole entry): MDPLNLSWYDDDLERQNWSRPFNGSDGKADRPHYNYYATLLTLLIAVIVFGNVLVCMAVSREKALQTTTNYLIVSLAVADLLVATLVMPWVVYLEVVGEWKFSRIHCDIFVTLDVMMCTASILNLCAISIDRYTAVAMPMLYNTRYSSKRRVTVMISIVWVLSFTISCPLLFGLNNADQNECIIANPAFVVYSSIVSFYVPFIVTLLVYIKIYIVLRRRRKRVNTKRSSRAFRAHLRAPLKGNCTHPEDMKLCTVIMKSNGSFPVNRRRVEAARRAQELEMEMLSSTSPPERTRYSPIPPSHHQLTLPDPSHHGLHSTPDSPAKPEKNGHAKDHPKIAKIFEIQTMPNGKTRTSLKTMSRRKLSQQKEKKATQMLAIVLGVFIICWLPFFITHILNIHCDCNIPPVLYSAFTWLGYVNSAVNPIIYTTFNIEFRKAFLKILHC

CCN(CC)CCCCNc1ncc2cc(-c3cc(OC)cc(OC)c3)c(NC(=O)NC(C)(C)C)nc2n1
% of control [1]: 100%

CCC(=O)N1CCN(c2ccc(-n3c(=O)ccc4cnc5ccc(-c6cnc7ccccc7c6)cc5c43)cc2C(F)(F)F)CC1
% of control [2]: 36%

CN(C)CCOc1ccc(-c2nc(-c3ccncc3)c(-c3ccc4c(c3)CC/C4=N\O)[nH]2)cc1
% of control [3]: 88%

CCn1c(-c2nc3cc(C(=O)N4CCCC(N)C4)ccc3n2C)cc2ccccc21 (stereo not drawn)
pXC50 (D(2) dopamine receptor): < 4 M

Cc1cc([C@@H](C)Nc2ccccc2C(=O)O)c2nc(N3CCOCC3)cc(=O)n2c1 [AZD-6482]
% of control [4]: 100%

CC[C@@H]1[C@H](F)C(=O)N[C@@H]1COc1nccc2cc(C(N)=O)c(OC)cc12 [ZIMLOVISERTIB]
% of inhibition ([5]; at 0.01 µM): 12.8% | % of inhibition ([5]; at 0.04 µM): -16% | % of inhibition ([5]; at 0.2 µM): -25.4% | % of inhibition ([5]; at 1 µM): -5.3% | % of inhibition ([5]; at 5 µM): -19.6% | % of inhibition ([6]; at 0.01 µM): -9.1% | % of inhibition ([6]; at 0.04 µM): 4.5% | % of inhibition ([6]; at 0.2 µM): -13.8% | % of inhibition ([6]; at 1 µM): 4.1% | % of inhibition ([6]; at 5 µM): -6.8% | % of inhibition [7]: -3.9%

COCC(=O)NC/C=C/c1ccc2ncnc(Nc3ccc(Oc4ccc(C)nc4)c(C)c3)c2c1 [CP-724714]
% of control [8]: 100%

C=CC(=O)Nc1cc(-n2c(=O)ccc3cnc4ccc(-c5ccc(NS(C)(=O)=O)cc5)cc4c32)ccc1C
% of control ([9]; at 1 µM): 100% | % of control ([9]; at 10 µM): 96% | % of control [10]: 100% | % of control ([11]; at 1 µM): 100% | % of control ([11]; at 10 µM): 69%

O[C@H]1CC[C@H](Nc2ncc3nc(Nc4c(F)cc(F)cc4F)n([C@H]4CCOC4)c3n2)CC1
% of control [12]: 100%
